The text below walks through data of patent publication US8455497B2, “Inhibitors of aspartyl protease” (Vertex Pharmaceuticals Incorporated, priority 1999, dated 2013).

The structures appear in SMILES notation. Read-outs that look alike come from different tables or passages of the source.

In experiment [1] the test system is D545701-14 multi protease inhibitor resistant virus. Nature of the experiment: Anti-viral activity against resistant virus D545701-14 in MT4 cells. The experiment is classed as cell-based, HIV-1. On the procedure:
(§1) Exponentially growing MT4 cells were harvested and centrifuged at 1000 rpm for 10 min in a Jouan centrifuge (model CR 4 12). […] Cell aliquots were infected by the addition of HIV-1 (strain IIIB) diluted to give a viral multiplicity of infection of 100×TCID50. […] Cell infection was allowed to proceed for 1 hr at 37° in a tissue culture incubator with humidified 5% CO2 atmosphere. After the 1 hr incubation the virus/cell suspensions were diluted 6-fold with fresh medium, and 125 μl of the cell suspension was added to each well of the plate containing pre-diluted compound. Plates were then placed in a tissue culture incubator with humidified 5% CO2 for 5 days. At the end of the incubation period, 27 μl of 5% Nonidet-40 was added to each well of the incubation plate. After thorough mixing with a Costar multitip pipetter, 60 μl of the mixture was transferred to filter-bottomed 96-well plates. The plates were analyzed in an automated assay instrument (Screen Machine, Idexx Laboratories). The assay makes use of a propidium iodide dye to estimate the DNA content of each well.
(§2) Anti-Viral Activity Against Resistant Viruses
EP13 and DS45701, two multi protease inhibitor resistant viruses were used to assess potency against mutant viruses. These viruses contain the following mutations relative to the consensus sequence of wild type virus: […]

The next experiment deals with HIV-1 (strain IIIB). In words: Antiviral activity assay in MT4 cells (propidium iodide based). Type of experiment: cell-based. As to the method:
Antiviral Activity Assay in MT4 Cells
Aliquots of the test compounds were serially diluted in medium (RPMI 1640, 10% fetal calf serum (FCS), and gentamycin) in 96-well plates (Costar 3598) using a Cetus Pro/Pette. Exponentially growing MT4 cells were harvested and centrifuged at 1000 rpm for 10 min in a Jouan centrifuge (model CR 4 12). Cell pellets were resuspended in fresh medium (RPMI 1640, 20% FCS, 20% IL-2, and gentamycin) to a density of 5×10^5 cells/ml. Cell aliquots were infected by the addition of HIV-1 (strain IIIB) diluted to give a viral multiplicity of infection of 100×TCID50. A similar cell aliquot was diluted with medium to provide a mock-infected control. Cell infection was allowed to proceed for 1 hr at 37° in a tissue culture incubator with humidified 5% CO2 atmosphere. After the 1 hr incubation the virus/cell suspensions were diluted 6-fold with fresh medium, and 125 μl of the cell suspension was added to each well of the plate containing pre-diluted compound. Plates were then placed in a tissue culture incubator with humidified 5% CO2 for 5 days. At the end of the incubation period, 27 μl of 5% Nonidet-40 was added to each well of the incubation plate. After thorough mixing with a Costar multitip pipetter, 60 μl of the mixture was transferred to filter-bottomed 96-well plates. The plates were analyzed in an automated assay instrument (Screen Machine, Idexx Laboratories). The assay makes use of a propidium iodide dye to estimate the DNA content of each well.
The anti-viral potency in MT-4 cells of the compounds set forth in Tables 1 and 2 was determined using the above technique.

Experiment [2] deals with EP13 multi protease inhibitor resistant virus. In words: Anti-viral activity against resistant virus EP13 in MT4 cells. Type of experiment: cell-based, HIV-1. On the procedure:
as §1, §2
EP13 and DS45701, two multi protease inhibitor resistant viruses were used to assess potency against mutant viruses. These viruses contain the following mutations relative to the consensus sequence of wild type virus:
EP13: Protease amino acid sequence: M46I, L63P, A71V, V82F/L, I84V; No reverse transcriptase mutations.

Where [3] appears, read: D545701-14 multi protease inhibitor resistant virus, MT4 cells, read-out: D545701-14 mutant - IC50.
Setting [4] is: wild type HIV-1 virus, MT4 cells, read-out: Wildtype virus - IC50.
Where [5] appears, read: Human immunodeficiency virus 1, IIIB, wild type HIV-1 virus, MT4 cells, read-out: Wildtype virus - IC50.
The mark [6] stands for this setting: MT-4 cells, HIV-1 strain IIIB, 5 days, read-out: IC50 (Antiviral Activity of Compounds of the Invention).
[7] abbreviates: Human immunodeficiency virus 1, MT4, 120 h, MT-4 cells, HIV-1 strain IIIB, 5 days, read-out: IC50 (Antiviral Activity of Compounds of the Invention).

With `CC(C)CN(C[C@@H](O)[C@H](Cc1ccc(OCc2ccoc2)cc1)NC(=O)O[C@H]1CO[C@H]2OCC[C@H]21)S(=O)(=O)c1ccc2c(c1)OCO2` [Compound 210], the IC50 in experiment [1] (setting [3]) fell in the range of 10 to 100 nM; with HIV-1 (strain IIIB) (setting [4]), 1 to 10 nM. Take `COc1ccccc1-c1nc(COc2ccc(C[C@H](NC(=O)O[C@H]3CO[C@H]4OCC[C@H]43)[C@H](O)CN(CC(C)C)S(=O)(=O)c3ccc4c(c3)OCO4)cc2)no1` [Compound 390, (3R,3aS,6aR)-hexahydrofuro[2,3-b]furan-3-yl (1S,2R)-3-[(1,3-benzodioxol-5-ylsulfonyl)(isobutyl)amino]-2-hydroxy-1-(4-{[5-(2-methoxyphenyl)-1,2,4-oxadiazol-3-yl]methoxy}benzyl) propylcarbamate]: the IC50 is 10 to 100 nM in experiment [1] (setting [3]) and 1 to 10 nM in the experiment with HIV-1 (strain IIIB) (setting [4]).

Regarding `CC(C)CN(C[C@@H](O)[C@H](Cc1ccc(OCCc2ccccn2)cc1)NC(=O)O[C@H]1CO[C@H]2OCC[C@H]21)S(=O)(=O)c1ccc2c(c1)OCO2` [Compound 212], the IC50 in experiment [1] (setting [3]) lay in the range of 10 to 100 nM; with HIV-1 (strain IIIB) (setting [4]), 1 to 10 nM. Take `CC(C)CN(C[C@@H](O)[C@H](Cc1ccc(OCc2ccc(C(F)(F)F)cc2)cc1)NC(=O)O[C@H]1CO[C@H]2OCC[C@H]21)S(=O)(=O)c1ccc2c(c1)OCO2` [Compound 372]: the IC50 lay within 10 to 100 nM in experiment [1] (setting [3]) and 1 to 10 nM with HIV-1 (strain IIIB) (setting [4]). Turning to `Cc1c(O)cccc1C(=O)N[C@@H](CSc1ccccc1)[C@H](O)CN1C[C@H]2CCCC[C@H]2C[C@H]1C(=O)NC(C)(C)C` [Nelfinavir, reference compound], the IC50 in experiment [1] (Human immunodeficiency virus 1, MT4, read-out: Reference data for protease inhibitors (D545701-14), D545701-14 mutant virus) came to 690 nM.

For `CC(C)CN(C[C@@H](O)[C@H](Cc1ccc(OS(=O)(=O)c2ccc([N+](=O)[O-])cc2)cc1)NC(=O)O[C@@H]1CO[C@H]2OCC[C@H]21)S(=O)(=O)c1ccc([N+](=O)[O-])cc1` [Compound 297, 4-((2S,3R)-2-({[(3S,3aS,6aR)-hexahydrofuro[2,3-b]furan-3-yloxy]carbonyl}amino)-3-hydroxy-4-{isobutyl[(4-nitrophenyl)sulfonyl]amino}butyl)phenyl 4-nitrobenzenesulfonate], the IC50 in the experiment with HIV-1 (strain IIIB) (setting [5]) lay in the range of 10 to 100 nM; in experiment [2] (Human immunodeficiency virus 1, MT4, read-out: EP13 mutant IC50, EP13 multi protease inhibitor resistant virus, MT4 cells) it was 10 to 100 nM. In the case of `CC(C)(C)NC(=O)[C@@H]1C[C@@H]2CCCC[C@@H]2CN1C[C@@H](O)[C@H](Cc1ccccc1)NC(=O)[C@H](CC(N)=O)NC(=O)c1ccc2ccccc2n1` [Saguinavir, reference compound], in experiment [1] (D545701-14 mutant virus, read-out: Reference data for protease inhibitors (D545701-14)), the IC50 amounted to 900 nM. Consider `CC(C)CN(C[C@@H](O)[C@H](Cc1ccc(OCc2cccc(C(F)(F)F)c2)cc1)NC(=O)O[C@H]1CO[C@H]2OCC[C@H]21)S(=O)(=O)c1ccc2c(c1)OCO2` [Compound 373], for which the IC50 in experiment [1] (setting [3]) lay in the range of 10 to 100 nM; with HIV-1 (strain IIIB) (setting [4]), 1 to 10 nM. Turning to `CCOC(=O)NCCCOc1ccc(C[C@H](NC(=O)O[C@H]2CO[C@H]3OCC[C@H]32)[C@H](O)CN(CC(C)C)S(=O)(=O)c2ccc3c(c2)OCO3)cc1` [Compound 246], the IC50 in the experiment on HIV-1 (strain IIIB) (setting [4]) was in the range of 1 to 10 nM.

Regarding `CC(C)CN(C[C@@H](O)[C@H](Cc1ccc(OCc2ccc(F)cc2)cc1)NC(=O)O[C@H]1CO[C@H]2OCC[C@H]21)S(=O)(=O)c1ccc2c(c1)OCO2` [Compound 371], the IC50 with HIV-1 (strain IIIB) (setting [4]) was 10 to 100 nM; in experiment [2] (EP13 multi protease inhibitor resistant virus, MT4 cells, read-out: EP13 mutant IC50), 1 to 10 nM.

With `COCCN(CCOC)CCOc1ccc(CC(NC(=O)OC2COCOC2)C(O)CN(CC(C)C)S(=O)(=O)c2cccc(N)c2)cc1` (stereo not shown) [Compound 25], in the experiment with HIV-1 (strain IIIB) (setting [6]), the IC50 was in the range of 10 to 100 nM.

In the case of `CC(C)CN(C[C@@H](O)[C@H](Cc1ccc(OCCCC(=O)O)cc1)NC(=O)O[C@H]1CO[C@H]2OCC[C@H]21)S(=O)(=O)c1ccc2c(c1)OCO2` [Compound 339, 4-(4-{(2S,3R)-2-({[(3R,3aS,6aR)-hexahydrofuro[2,3-b]furan-3-yloxy]carbonyl}amino)-4-[(1,3-benzodioxol-5-ylsulfonyl)(isobutyl)amino]-3-hydroxybutyl}phenoxy) butanoic acid], the IC50 with HIV-1 (strain IIIB) (setting [5]) fell in the range of 10 to 100 nM.

For `CC(C)CN(CC(O)C(Cc1ccc(OCCCN2CCOCC2)cc1)NC(=O)OC(C)(C)C)S(=O)(=O)c1ccc(N)cc1` (stereo not shown) [Compound 11], the IC50 in the experiment on HIV-1 (strain IIIB) (setting [6]) was above 100 nM. Turning to `CC(C)CN(C[C@@H](O)[C@H](Cc1ccc(OCc2ccccc2)cc1)NC(=O)O[C@H]1CO[C@H]2OCC[C@H]21)S(=O)(=O)c1ccc2nc(N)sc2c1` [Compound 44, Bis-THF Benzothiazolesulfonamide Benzyl Ether], the IC50 with HIV-1 (strain IIIB) (setting [7]) is below 1 nM. Take `CC(C)CN(C[C@@H](O)[C@H](Cc1ccc(OCc2noc(-c3ccccc3)n2)cc1)NC(=O)O[C@H]1CO[C@H]2OCC[C@H]21)S(=O)(=O)c1ccc2c(c1)OCO2` [Compound 375]: the IC50 was in the range of 10 to 100 nM in experiment [1] (setting [3]) and 1 to 10 nM in the experiment on HIV-1 (strain IIIB) (setting [4]). Take `CSc1ccc(COc2ccc(C[C@H](NC(=O)O[C@H]3CO[C@H]4OCC[C@H]43)[C@H](O)CN(CC(C)C)S(=O)(=O)c3ccc4c(c3)OCO4)cc2)cc1` [Compound 369]: in the experiment on HIV-1 (strain IIIB) (setting [5]), the IC50 was 1 to 10 nM. For the compound `COCCN(CCOC)CCOc1ccc(CC(NC(=O)OC2COC3OCCC23)C(O)CN(CC(C)(C)CCC#N)S(=O)(=O)c2ccc3c(c2)OCO3)cc1` (stereo not shown) [Compound 73], the IC50 in the experiment with HIV-1 (strain IIIB) (setting [6]) lay in the range of 10 to 100 nM. In the case of `CC(C)CN(C[C@@H](O)[C@H](Cc1ccc(OCCN2CCOCC2)cc1)NC(=O)OC(C)(C)C)S(=O)(=O)c1ccc2c(c1)OCO2` [Compound 17, Boc Methylenedioxybenzenesulfonamide Ethylmorpholine Tethered Product], the IC50 in the experiment on HIV-1 (strain IIIB) (setting [7]) was above 100 nM. As to `CCOC(CCOC(=O)N[C@@H](Cc1ccc(OCc2ccccc2)cc1)[C@H](O)CN(CC(C)C)S(=O)(=O)c1ccc2c(c1)OCO2)OCC` [Compound 328, 3,3-Diethoxypropyl (1S,2R)-3-[(1,3-benzodioxol-5-ylsulfonyl)(isobutyl)amino]-1-[4-(benzyloxy)benzyl]-2-hydroxypropylcarbamate], the IC50 in the experiment with HIV-1 (strain IIIB) (setting [5]) was in the range of 10 to 100 nM.

In the case of `COCCN(CCOC)CCOc1ccc(CC(NC(=O)OC2CCOC2)C(O)CN(CC(C)C)S(=O)(=O)c2ccc3c(c2)OCO3)cc1` (stereo not shown) [Compound 24], in the experiment with HIV-1 (strain IIIB) (setting [6]), the IC50 was in the range of 10 to 100 nM.

Regarding `CC(C)CN(CC(O)C(Cc1ccc(OCCN2CCOCC2)cc1)NC(=O)OC1COC2OCCC12)S(=O)(=O)c1cccc(N)c1` (stereo not shown) [Compound 37], the IC50 with HIV-1 (strain IIIB) (setting [6]) is 10 to 100 nM. Consider `CC(C)CN(C[C@@H](O)[C@H](Cc1ccc(OCCCNC(=O)c2ccccc2)cc1)NC(=O)O[C@H]1CO[C@H]2OCC[C@H]21)S(=O)(=O)c1ccc2c(c1)OCO2` [Compound 233], for which the IC50 was in the range of 10 to 100 nM in experiment [1] (setting [3]) and 1 to 10 nM in the experiment with HIV-1 (strain IIIB) (setting [4]). Take `CC(C)CN(CC(O)C(Cc1ccc(OCc2ccccn2)cc1)NC(=O)OC1COC2OCCC12)S(=O)(=O)c1cccc(N)c1` (stereo not shown) [Compound 36]: the IC50 with HIV-1 (strain IIIB) (setting [6]) lay within 10 to 100 nM. Regarding `CC(C)CN(C[C@@H](O)[C@H](Cc1ccc(OCCC(F)(F)F)cc1)NC(=O)O[C@H]1CO[C@H]2OCC[C@H]21)S(=O)(=O)c1ccc2c(c1)OCO2` [Compound 217], the IC50 in the experiment with HIV-1 (strain IIIB) (setting [4]) was in the range of 1 to 10 nM. Turning to `Cc1ncsc1CCOc1ccc(C[C@H](NC(=O)O[C@H]2CO[C@H]3OCC[C@H]32)[C@H](O)CN(CC(C)C)S(=O)(=O)c2ccc3c(c2)OCO3)cc1` [Compound 213], the IC50 in the experiment with HIV-1 (strain IIIB) (setting [4]) fell in the range of 1 to 10 nM.
